Results reported in patent US20190029987A1, “DIMETHYL FUMARATE (DMF) FOR PREVENTION OR TREATMENT OF GOUT, ACNE, DIABETES, VITILIGO AND/OR PYODERMA GANGRENOSUM” (UNIVERSITAT ZURICH, priority 2016, published 2019).

Assays:
[1] = target: caspase-1 / Rbx1 interaction (Homo sapiens, UniProt P29466); conditions: HPKs, 50 μM, harvested 1 h later, FIG. 5C
Procedure: To address this point, the inventors performed co-immunoprecipitation (co-IP) experiments with an antibody for caspase-1 and lysates of HPKs. […] In addition, the inventors overexpressed a FLAG-tagged version of caspase-1 in HPKs and precipitated the protease with an ANTI-FLAG M2 Affinity Gel (FIG. 5B).
Co-immunoprecipitation (co-IP) was performed with lysates of HPKs as described (Sollberger et al., J Immunol 2012. 188: 1992-2000). Briefly, HPKs were grown in 10 cm dishes, transfected with siRNA (scr or siRNA targeting Rbx1), and propagated to 80% confluency (3 days), Four dishes were harvested in 150 μl co-IP buffer with complete proteinase inhibitor (Roche, Rotkreuz, Switzerland), respectively. After treatment in a douncer, the lysates were centrifuged (20 min, 17 000×g). The supernatant was diluted 1: 1 with co-IP buffer and incubated with 20 μg antibody (caspase-1 or HA). After centrifugation, 150 μl (50 mg/ml) protein A Sepharose (GE Healthcare, Little Chalfront, UK) was added. After 90 min, the beads were washed four times with co-IP buffer and resuspended in 100 μl 2×loading SDS buffer. Alternatively, co-immunoprecipitation was performed using an ANTI-FLAG® M2 Affinity Gel (Sigma). HPKs were grown in 10 cm dishes and transduced with lentiviral constructs encoding FLAG-tagged caspase-1 or GFP as described above. […]

[2] = tested on: Monosodium urate (MSU) crystal-induced peritonitis; experiment: MSU crystal-induced peritonitis mouse model (neutrophils in peritoneal lavage); type: in vivo; conditions: mice, oral gavage 25 mg/kg in PBS for two days, 6 h post 2 mg MSU crystals, vs control mice, FIG. 3B
Procedure: (§1) Monosodium urate (MSU) crystal-induced peritonitis is a mouse model of inflammation and gout, which is dependent on IL-1, IL-1R1, MyD88 and the NLRP3 inflammasome. […] The inventors chose a different way of administration and supplied mice with SFN or DMF by oral gavage to determine a potential anti-inflammatory activity of the Nrf2 activators in vivo (FIG. 3). […] The inventors analysed the cellular infiltrate in the peritoneum 6 h post injection of MSU crystals.
Mice were challenged with 2 mg of MSU crystals for 6 hours as previously described (Chen et a Olin Invest 2006. 116: 2262-2271).
Mice treated by gavage with (A, B, C) SFN (25 mg/kg) in PBS or (D, E, F) DMF (20 mg/kg) in H2O containing 0.08% methocel and 10% DMSO, vehicle-treated mice served as control. Regime for (A) SFN or (D) DMF treatment. Peritonitis was induced by peritoneal injection of 2 mg MSU crystals, (B, E) After 6 h the number of neutrophils of the peritoneal lavage was determined by flow cytornetry. […] Statistics: Student's t-test. (B, C) n≥3, (E, F) n=7. *P≤0.05; **P≤0.01

[3] = tested on: Nrf2 target genes Gstp1, Nqo1 and Srxn1; experiment: Nrf2 target gene expression in liver of treated mice (qRT-PCR); type: in vivo, mouse; conditions: oral gavage 25 mg/kg, FIG. 3C
Procedure: as §1
qRT-PCR was performed with the LightCycler 480 SYBR Green Master or the FastStart Universal SYBR Green Master (both Roche, Rotkreuz, Switzerland) using total cellular RNA. Specific primer pairs (Supplementary Table 2) were designed to generate an approximately 150 bp fragment flanking an intron-exon border of the corresponding gene. […]
Mice treated by gavage with (A, B, C) SFN (25 mg/kg) in PBS or (D, E, F) DMF (20 mg/kg) in H2O containing 0.08% methocel and 10% DMSO, vehicle-treated mice served as control. […] Peritonitis was induced by peritoneal injection of 2 mg MSU crystals, (B, E) After 6 h the number of neutrophils of the peritoneal lavage was determined by flow cytornetry. (C, F) At the same time, the liver was isolated and analysed for the expression of the Nrf2 target genes Gstp1, Nqo1 and Srxn1 by qRT-PCR. […]

[4] = tested on: Nrf2 target genes (GCLC, GCLM, NAD(P)H dehydrogenase, quinone 1); experiment: Nrf2 target gene expression in HPKs (qRT-PCR); type: cell-based, human; conditions: 10 μM, RNA after 8 h, FIG. 6G
Procedure: Human primary keratinocytes (HPKs) constitutively express pro-IL-1β and inflammasome proteins.
qRT-PCR was performed with the LightCycler 480 SYBR Green Master or the FastStart Universal SYBR Green Master (both Roche, Rotkreuz, Switzerland) using total cellular RNA. Specific primer pairs (Supplementary Table 2) were designed to generate an approximately 150 bp fragment flanking an intron-exon border of the corresponding gene. The LightCycler 480 96-well version (ROCHE, Rotkreuz, Switzerland) or the ViiA 7 Real-Time FOR System (Life Technologies, Carlsbad, US-CA) was used for reaction and detection according the instructions of the manufacturer.
FIG. 6: Bone marrow (BM) cells were isolated from Nrf2-deficient mice and wt litterfnates and differentiated into dendritic cells (DCs). (A, B) After priming with upLPS overnight, BMDCs were treated with the NLRP3 inflammasome activators nigericin (20 μM), zymosan (20 μg/ml), MSU (150 μg/ml), ATP (5 mM) or transfected with poly(dA:dT) (1 μg/ml) for activation of the AIM2 inflammasome. After 6 h, supernatants were analysed for secretion of IL-1β by (A) ELISA or (B) Western blot. Mock-treated but primed BMDCs were analysed for expression of inflammasome proteins and pro-IL-1β at the (C) mRNA level by qRT-PCR or at the (D) protein level by Western blot. (B, D) Duplicates from two individual mice per genotype are shown (biological replicates). (E-G) HPKs were treated with the Nrf2 activators SFN (10 μM), tBHQ (10 μM), DMF (50 μM) and 15d-PGJ2 (10 μM). After 1 h, the cells were harvested and analysed for expression of the indicated proteins using total cell lysates (E) or cytoplasmic and nuclear lysates (F). Western blots for the nuclear protein lamin NC and the cytoplasmic protein α-tubulin served as controls. Specific bands are marked with an asterisk. (G) Total RNA was isolated after 8 h and qRT-PCR was performed for quantification of expression of the Nrf2 target genes glutamate-cysteine ligase, catalytic subunit (GCLC), glutamate-cysteine ligase, modifier subunit (GCLM), and NAD(P)H dehydrogenase, quinone 1 (N001). (A-G) Representative experiments performed at least three times are shown. […] Mann-Whitney test was performed. […] Mann-Whitney test was performed. *P≤0.05

NLRP3 inflammasome = NLRP3 inflammasome (Mus musculus, UniProt Q8R4B8); conditions: BMDCs from wt and Nrf2 knockout mice, 10 μM 1 h before 5 μM nigericin, 4.5 h, FIG. 5D,E
Procedure: To address this possibility, the inventors treated BMDCs from wild-type and Nrf2 knockout mice with SFN or vehicle (FIG. 5 D, E).
(D, E) DCs were differentiated from the bone marrow of wt and Nrf2 knockout mice (n=4), primed overnight with upLPS and treated with the solvent DMSO (ctrl) or SFN (10 μM). After 1 h, BMDCs were treated with 5 μM nigericin and harvested 4.5 h later. (D) Western blots for expression and activation of the indicated proteins and (E) ELISA for quantification of secretion of IL-1p. […] IL-1β secretion was determined by ELISA. […] (A-E) Representative experiments performed at least three times are shown. (E) Error bars represent the mean±SD of a representative experiment performed in triplicates.

ASC = conditions: THP1, 10 μM, nigericin 5 μM for 2.5 h, FIG. 5F
Procedure: In order to analyse, at which level SFN blocks inflammasome activation, the inventors determined the formation of ASC specks in SFN-treated and inflammasome activated THP1 cells (FIG. 5F). Formation of ASC specks is an upstream event of inflammasome activation.
ASC specks were analysed as described (Nara et al., Nat Immunol 2013. 14: 1247-1255),
(F) THP1 cells (3 d differentiated with TPA, overnight primed with LPS) were stimulated with SFN (10 μM) or the solvent DMSO and mock-treated or with nigericin (5 μM) for 2.5 h. Lysates were harvested in Triton buffer and analysed for soluble and insoluble (indicating speck formation) ASC or in DSS-containing buffer for detection of ASC monomers, dimers and oligomers by Western blotting. IL-1β secretion was determined by ELISA.

Chain of caspase-1 / Rbx1 interaction (P29466 120-404): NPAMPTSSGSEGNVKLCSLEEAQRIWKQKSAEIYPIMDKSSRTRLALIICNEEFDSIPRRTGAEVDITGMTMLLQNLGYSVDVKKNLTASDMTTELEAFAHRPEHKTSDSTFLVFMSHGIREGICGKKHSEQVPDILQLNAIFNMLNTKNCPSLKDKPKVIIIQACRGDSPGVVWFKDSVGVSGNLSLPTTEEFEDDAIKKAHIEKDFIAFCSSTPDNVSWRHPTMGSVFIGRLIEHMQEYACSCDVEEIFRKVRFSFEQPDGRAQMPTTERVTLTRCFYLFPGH
Chain of NLRP3 inflammasome (Q8R4B8 whole entry): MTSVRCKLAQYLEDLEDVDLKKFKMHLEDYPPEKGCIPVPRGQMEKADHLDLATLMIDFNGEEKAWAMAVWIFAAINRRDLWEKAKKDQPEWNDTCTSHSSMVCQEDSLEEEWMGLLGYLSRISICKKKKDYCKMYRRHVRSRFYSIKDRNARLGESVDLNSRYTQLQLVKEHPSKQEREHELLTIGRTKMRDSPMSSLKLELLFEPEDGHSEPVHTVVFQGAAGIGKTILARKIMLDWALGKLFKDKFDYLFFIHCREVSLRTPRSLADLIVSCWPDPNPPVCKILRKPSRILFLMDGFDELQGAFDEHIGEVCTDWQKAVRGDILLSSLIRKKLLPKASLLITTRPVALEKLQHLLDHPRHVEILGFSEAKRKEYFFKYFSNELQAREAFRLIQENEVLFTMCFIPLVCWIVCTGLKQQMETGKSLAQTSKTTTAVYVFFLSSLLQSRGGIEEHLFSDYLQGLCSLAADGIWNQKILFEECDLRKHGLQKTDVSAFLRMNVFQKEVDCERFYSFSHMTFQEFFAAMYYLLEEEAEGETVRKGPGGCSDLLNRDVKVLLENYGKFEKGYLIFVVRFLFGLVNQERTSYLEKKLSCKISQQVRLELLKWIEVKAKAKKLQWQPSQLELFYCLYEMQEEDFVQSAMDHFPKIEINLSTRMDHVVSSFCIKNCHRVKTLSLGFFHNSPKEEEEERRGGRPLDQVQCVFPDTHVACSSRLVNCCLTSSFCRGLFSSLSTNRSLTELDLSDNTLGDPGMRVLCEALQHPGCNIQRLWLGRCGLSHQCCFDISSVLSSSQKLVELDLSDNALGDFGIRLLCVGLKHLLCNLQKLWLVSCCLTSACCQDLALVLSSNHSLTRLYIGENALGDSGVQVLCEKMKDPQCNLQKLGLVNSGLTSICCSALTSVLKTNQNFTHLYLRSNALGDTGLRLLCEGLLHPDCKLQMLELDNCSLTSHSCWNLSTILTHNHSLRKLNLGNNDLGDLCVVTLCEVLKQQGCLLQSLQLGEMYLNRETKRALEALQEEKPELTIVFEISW

| Structure (SMILES) | interaction between caspase-1 and Rbx1 (co-IP) [1] | number of neutrophils in the peritoneum [2] | expression of Nrf2 target genes in the liver [3] | expression of classical Nrf2 target genes [4] | secretion of IL-1β (NLRP3 inflammasome) | ASC speck formation / oligomerization (ASC) |
| --- | --- | --- | --- | --- | --- | --- |
| C[S+]([O-])CCCCN=C=S (stereo not shown) [SFN, sulforaphane] | did not prevent the interaction between caspase-1 and Rbx1 | significantly reduced | increased mRNA expression | induction of classical Nrf2 target genes | completely abolished secretion of the cytokine independently of Nrf2 expression | prevented oligomerization of the adaptor protein |
| CCCCCC=CC=C1C(=O)C=CC1CC=CCCCC(=O)O [15d-PGJ2, 15-deoxy-D-prostaglandin J2] |  |  |  | induction of classical Nrf2 target genes |  |  |
